Experimental data: ChEMBL document CHEMBL1201862, “PubChem BioAssay data set” (2004)
Calls of active or inactive are those of the source.

Key:
[1] = biological target: Glyceraldehyde-3-phosphate dehydrogenase (Homo sapiens, UniProt P04406)
[2] = biological target: T1, Alkaline phosphatase, tissue-nonspecific isozyme (Homo sapiens, UniProt P05186); assay: potency against alkaline phosphatase TNAP – biochemical, luminescent, dose response, SAR follow-up (AID 1056)
T1 sequence (P05186 whole entry): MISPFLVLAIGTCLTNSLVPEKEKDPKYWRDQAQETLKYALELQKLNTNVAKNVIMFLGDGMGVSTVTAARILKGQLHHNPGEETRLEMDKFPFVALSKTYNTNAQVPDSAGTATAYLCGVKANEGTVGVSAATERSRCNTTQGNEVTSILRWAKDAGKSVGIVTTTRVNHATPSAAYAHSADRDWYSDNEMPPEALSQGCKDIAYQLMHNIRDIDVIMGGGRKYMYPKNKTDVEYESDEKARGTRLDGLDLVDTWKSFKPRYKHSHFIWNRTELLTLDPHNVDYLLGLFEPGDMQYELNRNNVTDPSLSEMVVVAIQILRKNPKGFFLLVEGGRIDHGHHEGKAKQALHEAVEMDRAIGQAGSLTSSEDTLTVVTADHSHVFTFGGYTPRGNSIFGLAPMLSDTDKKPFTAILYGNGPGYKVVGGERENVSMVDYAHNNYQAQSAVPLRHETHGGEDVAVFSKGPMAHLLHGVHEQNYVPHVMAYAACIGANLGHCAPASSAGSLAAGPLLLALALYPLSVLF

[3] = biological target: Cyclin-dependent kinase 5/CDK5 activator 1 (Homo sapiens, UniProt Q00535); assay: blockade of human CDK5 activity – biochemical, cherry-picked samples, set 2, dose response (AID 504545)
Chain of Cyclin-dependent kinase 5/CDK5 activator 1 (Q00535 whole entry): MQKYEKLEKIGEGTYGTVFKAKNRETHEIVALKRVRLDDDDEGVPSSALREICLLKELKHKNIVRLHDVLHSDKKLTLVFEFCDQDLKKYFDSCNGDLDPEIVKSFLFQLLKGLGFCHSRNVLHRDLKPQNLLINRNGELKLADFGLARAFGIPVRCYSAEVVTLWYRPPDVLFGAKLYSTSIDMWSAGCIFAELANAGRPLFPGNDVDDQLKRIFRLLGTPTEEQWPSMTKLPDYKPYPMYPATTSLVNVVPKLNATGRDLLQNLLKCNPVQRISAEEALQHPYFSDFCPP
Chain of Cyclin-dependent kinase 5/CDK5 activator 1 (Q15078 whole entry, further chain): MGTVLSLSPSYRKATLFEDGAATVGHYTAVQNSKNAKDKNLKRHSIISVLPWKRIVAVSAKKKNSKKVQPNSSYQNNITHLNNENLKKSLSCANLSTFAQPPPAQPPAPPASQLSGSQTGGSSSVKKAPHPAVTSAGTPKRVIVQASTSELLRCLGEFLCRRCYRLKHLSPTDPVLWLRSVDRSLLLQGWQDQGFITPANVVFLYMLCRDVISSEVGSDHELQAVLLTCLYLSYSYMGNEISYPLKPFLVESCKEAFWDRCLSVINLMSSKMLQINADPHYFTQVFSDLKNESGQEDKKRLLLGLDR

[4] = biological target: Dual specificity tyrosine-phosphorylation-regulated kinase 1A (Rattus norvegicus, UniProt Q63470); assay type: biochemical, Homo sapiens
[5] = reduction of Shn3 3'UTR-driven luciferase in osteoblasts – cell-based, Clone20 osteoblasts, firefly luciferase, cherry-picked, dose response (AID 624132); assay type: functional;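 note: firefly luciferase luminescence from reporter carrying the Shn3 3'UTR in osteoblasts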
[6] = loss of viability in HepG2 cells – cell-based, CellTiter-Glo, cherry-picked, cytotoxicity control for Shn3 inhibitor project, dose response (AID 624134); assay type: functional
[7] = non-specific 3'UTR reporter inhibition in Clone20-Shn3RL – cell-based, Renilla luciferase, cherry-picked, counter-screen for Shn3 inhibitor project, dose response (AID 624133); assay type: functional
[8] = biological target: T2, Eukaryotic translation initiation factor 2-alpha kinase 3 (Homo sapiens, UniProt Q9NZJ5); assay: Dose response cell-based high-throughput screening assay to measure PERK inhibition. [Related pubchem assays: 1416 ]; assay type: functional
T2 sequence (Q9NZJ5 whole entry): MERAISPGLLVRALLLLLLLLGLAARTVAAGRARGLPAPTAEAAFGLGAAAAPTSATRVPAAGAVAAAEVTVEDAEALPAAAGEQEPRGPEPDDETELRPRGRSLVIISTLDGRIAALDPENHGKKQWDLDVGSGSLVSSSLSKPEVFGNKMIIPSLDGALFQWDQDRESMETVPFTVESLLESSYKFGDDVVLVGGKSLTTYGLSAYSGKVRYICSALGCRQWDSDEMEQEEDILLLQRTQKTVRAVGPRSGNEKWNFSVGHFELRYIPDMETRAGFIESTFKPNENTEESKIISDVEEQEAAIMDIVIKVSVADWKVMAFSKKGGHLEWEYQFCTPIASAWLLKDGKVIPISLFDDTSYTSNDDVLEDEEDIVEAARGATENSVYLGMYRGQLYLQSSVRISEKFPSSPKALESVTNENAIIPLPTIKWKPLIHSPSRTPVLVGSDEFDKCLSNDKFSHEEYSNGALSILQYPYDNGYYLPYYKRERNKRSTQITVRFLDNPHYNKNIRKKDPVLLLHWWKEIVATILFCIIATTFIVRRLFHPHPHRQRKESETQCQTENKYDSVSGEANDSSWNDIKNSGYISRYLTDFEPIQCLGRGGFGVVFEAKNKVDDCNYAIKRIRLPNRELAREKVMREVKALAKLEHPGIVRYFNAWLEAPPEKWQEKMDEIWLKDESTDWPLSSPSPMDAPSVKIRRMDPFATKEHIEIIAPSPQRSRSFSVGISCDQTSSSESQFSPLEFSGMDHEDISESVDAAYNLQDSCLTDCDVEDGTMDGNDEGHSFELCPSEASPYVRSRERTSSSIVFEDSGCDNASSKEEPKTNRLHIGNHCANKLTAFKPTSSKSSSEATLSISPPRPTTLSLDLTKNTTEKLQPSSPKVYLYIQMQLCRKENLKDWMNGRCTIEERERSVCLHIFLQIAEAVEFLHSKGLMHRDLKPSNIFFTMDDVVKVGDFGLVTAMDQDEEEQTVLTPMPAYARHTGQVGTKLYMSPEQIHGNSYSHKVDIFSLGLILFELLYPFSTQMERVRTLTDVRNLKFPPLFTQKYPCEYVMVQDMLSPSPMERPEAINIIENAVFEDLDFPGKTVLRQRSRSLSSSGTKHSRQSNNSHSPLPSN

[9] = biological target: T2, Eukaryotic translation initiation factor 2-alpha kinase 3; assay: Counterscreen assay for PERK inhibitors: Dose response cell-based high throughput screening assay to measure inhibition of PERK at 6 hours. [Related pubchem assays: 1522, 1416 ]; assay type: functional
[10] = Luminescence Cell-Based Dose Retest to Confirm Inhibitors of Cancer Stem Cells. [Related pubchem assays (depositor defined):AID2717, AID2721]; assay type: functional; settings: Homo sapiens
[11] = biological target: X-box-binding protein 1 (Homo sapiens, UniProt P17861); assay type: functional, Cricetulus griseus;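 note: confirmatory dose-response counter-screen serving a CHOP assay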
Chain of X-box-binding protein 1 (P17861 whole entry): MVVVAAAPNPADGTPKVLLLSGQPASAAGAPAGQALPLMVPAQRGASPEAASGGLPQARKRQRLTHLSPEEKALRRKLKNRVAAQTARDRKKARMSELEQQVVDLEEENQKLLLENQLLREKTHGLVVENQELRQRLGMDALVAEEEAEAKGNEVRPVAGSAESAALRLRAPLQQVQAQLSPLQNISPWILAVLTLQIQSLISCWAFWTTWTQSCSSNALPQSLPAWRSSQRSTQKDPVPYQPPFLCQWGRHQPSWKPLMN

[12] = test system: INS1; assay: INS-1E survival protection against cytokine death – cell-based, luminescence, retest, dose response (AID 449756); assay type: functional; settings: Rattus norvegicus;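 note: cell death triggered by IL-1 beta plus TNF-alpha plus IFN-gamma mixture; protective hits raise ATP signal compared with cytokine alone wells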
[13] = THP-1 cell cytotoxicity, dose response, cytotoxicity control for non-replicating M. tuberculosis project (AID 489025); assay type: functional
[14] = HepG2 cell cytotoxicity, dose response, cytotoxicity control for non-replicating M. tuberculosis project (AID 489018); assay type: functional; settings: Mycobacterium tuberculosis
[15] = cells; assay type: functional
[16] = test system: BJ; assay: BJ-TERT fibroblast viability loss – cell-based, RAS-independent, luminescence, dose response (AID 1933); assay type: functional; settings: Homo sapiens
[17] = test system: BJ; assay: cells; assay type: functional, cell-based; settings: Homo sapiens
[18] = viability of PTEN-deleted HCT116 cells – cell-based, HCT116 PTEN knockout, dose response (AID 1047); assay type: functional;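 note: HCT116 colon tumor cells with PTEN knocked out; cells exposed to compound for 60 hours before readout; potency for loss of cell viability measured by luminescence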
[19] = viability of HCT116 lacking mutant beta-catenin – cell-based, human colon tumor, dose response (AID 1045); assay type: functional;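 note: HCT116 colon tumor cells with beta catenin knocked out; cells exposed to compound for 60 hours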
[20] = test system: BJ; assay: BJ-TERT-LT-ST fibroblast viability loss – cell-based, RAS-independent, luminescence, dose response (AID 1935); assay type: functional; settings: Homo sapiens;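 note: BJ fibroblasts immortalized with TERT plus LT and ST oncogenes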
[21] = DRD fibroblast viability loss – cell-based, non-viral oncogenic, luminescence, dose response (AID 1934); assay type: functional; settings: Homo sapiens
[22] = test system: HeLa; assay: viability loss in HeLa cells – cell-based, 24 h, cherry-picked samples, cytotoxicity control, dose response (AID 504726); assay type: functional; settings: Homo sapiens;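 note: potency for cytotoxicity as loss of luminescence signal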
[23] = biological target: T3, Hepatocyte nuclear factor 4-alpha (Homo sapiens, UniProt P41235); assay type: functional, cell-based;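 note: biochemical luminescence-based dose-response counterscreen measuring inhibition of HNF4 dimerization, run alongside a screen for blockers of ABHD5–perilipin-5 interaction; split luciferase complementation of HNF4 fusion proteins in cell lysate measuring dimerization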
T3 sequence (P41235 whole entry): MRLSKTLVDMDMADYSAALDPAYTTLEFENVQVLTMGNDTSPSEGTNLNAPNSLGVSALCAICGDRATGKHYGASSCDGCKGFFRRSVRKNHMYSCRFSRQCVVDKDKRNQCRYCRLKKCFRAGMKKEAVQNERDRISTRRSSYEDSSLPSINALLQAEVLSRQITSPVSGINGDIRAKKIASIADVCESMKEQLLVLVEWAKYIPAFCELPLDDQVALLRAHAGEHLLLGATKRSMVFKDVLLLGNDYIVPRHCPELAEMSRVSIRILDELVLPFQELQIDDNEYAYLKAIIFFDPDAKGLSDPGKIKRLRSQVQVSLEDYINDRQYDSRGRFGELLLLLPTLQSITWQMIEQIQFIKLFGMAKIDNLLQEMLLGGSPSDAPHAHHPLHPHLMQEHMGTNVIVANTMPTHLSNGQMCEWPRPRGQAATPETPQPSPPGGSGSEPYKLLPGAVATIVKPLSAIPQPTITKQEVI

[24] = reduced cellular PGC1a acetyl-lysine signal – cell-based, cherry-picked samples, dose response (AID 720514); assay type: functional;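 note: potency may reflect raised or lowered acetylation signal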
[25] = biological target: Cytochrome P450 2C9 (Homo sapiens, UniProt P11712)
Chain of Cytochrome P450 2C9 (P11712 whole entry): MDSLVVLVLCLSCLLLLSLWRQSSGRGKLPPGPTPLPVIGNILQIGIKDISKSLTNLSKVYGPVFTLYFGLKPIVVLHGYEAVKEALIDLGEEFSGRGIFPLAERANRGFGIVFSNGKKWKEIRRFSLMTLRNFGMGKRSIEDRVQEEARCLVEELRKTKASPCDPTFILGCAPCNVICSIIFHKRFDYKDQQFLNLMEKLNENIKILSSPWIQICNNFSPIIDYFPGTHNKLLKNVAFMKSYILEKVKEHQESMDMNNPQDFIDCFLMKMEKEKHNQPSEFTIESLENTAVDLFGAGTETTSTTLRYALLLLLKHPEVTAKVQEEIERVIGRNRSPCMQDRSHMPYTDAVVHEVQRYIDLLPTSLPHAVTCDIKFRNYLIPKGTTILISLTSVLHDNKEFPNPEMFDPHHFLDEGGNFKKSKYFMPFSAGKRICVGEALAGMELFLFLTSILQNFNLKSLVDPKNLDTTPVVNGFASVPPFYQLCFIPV

[26] = luciferase reporter signal suppression in cells – H4 neuroglioma cells, luminescence, dose response (AID 1990); assay type: functional, cell-based
[27] = Luminescence Cell-Based Dose Response HTS to Identify Inhibitors of 5'UTR Stem-Loop Driven Prion Protein mRNA Translation in H4 Neuroglioblastoma Cells. [Related pubchem assays: 1827 (Project Summary), 1813 (Primary HTS)]; assay type: functional
[28] = alpha-synuclein stem-loop luciferase translation blockers – H4 neuroglioma cells, luminescence, confirmation (AID 1988); assay type: functional, cell-based
[29] = microbe, parasite or virus in culture; assay type: functional; settings: Mycobacterium tuberculosis
[30] = Vero E6 cell cytotoxicity, dose response, cytotoxicity control for non-replicating M. tuberculosis project, secondary assay (AID 492998); assay type: functional, VeroE6; settings: Vero C1008
[31] = test system: Vero; assay: cells; assay type: functional; settings: Chlorocebus sabaeus

Chain of Glyceraldehyde-3-phosphate dehydrogenase (P04406 whole entry): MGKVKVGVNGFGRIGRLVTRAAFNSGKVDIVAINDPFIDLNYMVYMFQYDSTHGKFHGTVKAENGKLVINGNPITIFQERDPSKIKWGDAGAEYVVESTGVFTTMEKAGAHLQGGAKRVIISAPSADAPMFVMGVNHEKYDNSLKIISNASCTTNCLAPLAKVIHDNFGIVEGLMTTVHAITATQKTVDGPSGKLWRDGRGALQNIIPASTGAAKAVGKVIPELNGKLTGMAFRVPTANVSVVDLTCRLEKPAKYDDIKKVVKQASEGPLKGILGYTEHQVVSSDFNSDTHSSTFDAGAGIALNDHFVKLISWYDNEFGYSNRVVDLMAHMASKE

With `O=C(O)c1cc(-c2ccc(Cl)cc2)n[nH]1` the IC50 [1] was > 100 µM (not active) and the IC50 [2] was 6.14 µM (active).
With `Cc1[nH]nc2c1-c1nc3ccccc3nc1C(C)(C)C2` the AC50 [3] was 14.7 µM (active), the AC50 [4] was 2.38 µM (active) and the AC50 [5] was 4.2 µM (active). For the same compound, the AC50 [6] was 24.4 µM (active) and the AC50 [7] was 9.03 µM (active).
In the case of `COc1cc(Cl)ccc1S(=O)(=O)Nc1ccc2ccccc2c1`, the IC50 [1] is reported as > 100 µM (not active) and the IC50 [2] is reported as > 100 µM (inactive).
For `O=C(O)c1ccc(C[S+]([O-])c2cccc(C(F)(F)F)c2)o1` (configuration not stated), the EC50 [8] was > 55.7 µM (not active) and the EC50 [9] was > 55.7 µM (not active).
For `CCOC(=O)c1c(C)noc1-c1ccc(Br)o1`, the EC50 [8] was > 55.7 µM (not active) and the EC50 [9] was > 55.7 µM (not active).
With `FC(F)(F)c1nnc(-c2ccccc2)nc1Sc1ccc(Cl)cc1` the AC50 [10] was 4 µM (active), the “Absolute IC50 (XBP1)” value [11] was 10 µM and the AC50 [12] was 9.75 µM (active). For the same compound, the AC50 [5] was 14.7 µM (active), the AC50 [6] was 31.4 µM (active) and the AC50 [7] was 21 µM (active).
For `Cc1nc(-c2ccc(C(F)(F)F)cc2)sc1C(=O)NN`, the CC50 [13] was 20.7 µM (active), the CC50 [14] was > 20 µM (active) and the IC50 [15] was 35.9 µM (active).
In the case of `CCC(=O)Nc1cccc(C(=O)/C=C/c2ccccc2)c1`, the EC50 [16] is reported as 9.74 µM (inconclusive), the EC50 [17] is reported as 26 µM (active) and the EC50 [18] is reported as 2.4 µM (active). For the same compound, the EC50 [19] was 2.34 µM (active), the EC50 [20] was 20.9 µM (inconclusive) and the EC50 [21] was 11.2 µM (active). The AC50 [22] was 23.6 µM (active), the IC50 [23] was 2.86 µM (active) and the AC50 [24] was 14.2 µM (active). The AC50 [25] was “inconclusive”.
For `CCCCCC(=O)N/N=C(\C)c1ccccn1`, the EC50 [26] was 12.5 µM (active), the EC50 [27] was 7.26 µM (active) and the EC50 [28] was 5.13 µM (active). The CC50 [29] was 21.4 µM (active), the CC50 [13] was 11.1 µM (active) and the CC50 [14] was > 20 µM (active). The CC50 [30] was 13.3 µM (active) and the IC50 [15] was 10.3 µM (active).
In the case of `COc1cc(OC)c(OC)cc1/C=N/Nc1[nH]cnc2c3ccccc3nc1-2`, the “Absolute IC50 (XBP1)” value [11] is reported as 10 µM and the CC50 [31] is reported as > 25 µM (active).
